Drawing on patent US8580829B2 (Boehringer Ingelheim International GmbH, priority 2010, dated 2013), this text covers IC50 for 27 molecules.

What is called IC50 is the concentration that gives 50% inhibition.

The target of assay [1] is T1, recombinant human FLAP protein (Homo sapiens, UniProt P20292).
T1 construct: made in house; host or cells: Sf9 insect cells (100,000 x g membrane fraction)
T1 sequence (P20292 1-161): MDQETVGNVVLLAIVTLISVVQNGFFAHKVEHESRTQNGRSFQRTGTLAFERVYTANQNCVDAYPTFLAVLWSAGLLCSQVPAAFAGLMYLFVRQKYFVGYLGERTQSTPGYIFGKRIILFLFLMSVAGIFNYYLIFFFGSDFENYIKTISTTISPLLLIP
In words: FLAP binding assay (Scintillation Proximity Assay, displacement of [125I]L-691,831). Conditions: recombinant human FLAP membranes, [125I]L-691,831 probe; read-out: FLAP SPA IC50. Summed up:
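Membranes came from Sf9 insect cells expressing recombinant human FLAP, collected as the 100,000×g pellet in Tris pH 7.5/MgCl2/EDTA buffer. 5 μg membrane protein was coupled to WGA SPA beads for 1 h.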

The subject of assay [2] is synthesis of LTB4 in human whole blood. In words: human whole blood LTB4 production inhibition assay. Type of assay: cell-based. The settings on record: Homo sapiens, heparinized human whole blood, calcimycin 20 μM; read-out: hWB LTB4 IC50. Summed up:
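Heparinized human whole blood was preincubated with compound for 15 min at 37° C, then stimulated with calcimycin (20 μM final, in PBS pH 7.4) for a further 30 min at 37° C. Plasma LTB4 was quantified by antibody-based homogeneous time-resolved fluorescence.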

In the case of `CS(=O)(=O)c1ccc(-c2nc(C3(c4ccc(-c5cnc(N)nc5)cc4)CCC3)no2)cc1` [Example 36, 5-(4-{1-[5-(4-Methanesulfonyl-phenyl)-1,2,4-oxadiazol-3-yl]-cyclobutyl}-phenyl)-pyrimidin-2-ylamine], the IC50 was found to be 4.3 nM in assay [1] and 260 nM in assay [2].
`COC(=O)c1ccc(-c2nc(C3(c4ccc(-c5cnc(N)nc5)cc4)CCC3)no2)cn1` [Example 170, 5-(3-{1-[4-(2-Amino-pyrimidin-5-yl)-phenyl]-cyclobutyl}-1,2,4-oxadiazol-5-yl)-pyridine-2-carboxylic acid methyl ester]: the results for the IC50 in assay [1] and in assay [2] were 2.9 nM and 390 nM, respectively.
For the molecule `N#Cc1cccc(-c2nc(C3(c4ccc(-c5cnc(N)nc5)cc4)CCC3)no2)c1` [Example 41, 3-(3-{1-[4-(2-Amino-pyrimidin-5-yl)-phenyl]-cyclobutyl}-1,2,4-oxadiazol-5-yl)-benzonitrile], the IC50 in assay [1] was 8.1 nM; in assay [2] it was 930 nM.
Taken in the same sequence, the figures for `CCNc1nc(C2(c3ccc(-c4cnc(N)nc4)cc3)CCC2)no1` [Example 24, 5-{4-[1-(5-Ethylamino-1,2,4-oxadiazol-3-yl)-cyclobutyl]-phenyl}-pyrimidin-2-ylamine] were 11 nM and 460 nM.
As to `CC(C)NC(=O)Cn1cc(-c2nc(C3(c4ccc(-c5cnc(N)nc5)cc4)CCC3)no2)cn1` [Example 208, 2-[4-(3-{1-[4-(2-Amino-pyrimidin-5-yl)-phenyl]-cyclobutyl}-[1,2,4]oxadiazol-5-yl)-pyrazol-1-yl]-N-isopropyl-acetamide], the IC50 stood at 2.8 nM in assay [1] and 52 nM in assay [2].
Consider `Nc1ncc(-c2ccc(C3(c4noc(-c5ccnc(NCCO)c5)n4)CCC3)cc2)cn1` [Example 95, 2-[4-(3-{1-[4-(2-Amino-pyrimidin-5-yl)-phenyl]-cyclobutyl}-1,2,4-oxadiazol-5-yl)-pyridin-2-ylamino]-ethanol], for which the results for the IC50 in assay [1] and in assay [2] were 3.2 nM and 130 nM, respectively.
The corresponding values for `Nc1ncc(-c2ccc(C3(c4noc(N5CCCC5=O)n4)CCC3)cc2)cn1` [Example 26, 1-(3-{1-[4-(2-Amino-pyrimidin-5-yl)-phenyl]-cyclobutyl}-1,2,4-oxadiazol-5-yl)-pyrrolidin-2-one] are 160 nM and 1600 nM.
Taken in the same sequence, the figures for `Nc1ncc(-c2ccc(C3(c4noc(-c5cnn6cccnc56)n4)CCC3)cc2)cn1` [Example 72, 5-{4-[1-(5-Pyrazolo[1,5-a]pyrimidin-3-yl-1,2,4-oxadiazol-3-yl)-cyclobutyl]-phenyl}-pyrimidin-2-ylamine] were 1.9 nM and 18 nM.
`Nc1ncc(-c2ccc(C3(c4noc(-c5ccncc5)n4)CCOCC3)cc2)cn1` [Example 147, 5-{4-[4-(5-Pyridin-4-yl-1,2,4-oxadiazol-3-yl)-tetrahydro-pyran-4-yl]-phenyl}-pyrimidin-2-ylamine]: the IC50 was 33 nM in assay [1] and 1700 nM in assay [2].
For `Nc1ncc(-c2ccc(C3(c4noc(-c5cnn(CC(=O)N6CCC(O)C6)c5)n4)CCC3)cc2)cn1` (stereo not drawn) [Example 239, 2-[4-(3-{1-[4-(2-Amino-pyrimidin-5-yl)-phenyl]-cyclobutyl}-[1,2,4]oxadiazol-5-yl)-pyrazol-1-yl]-1-(3-hydroxy-pyrrolidin-1-yl)-ethanone], the IC50 in assay [1] amounted to 6.2 nM; in assay [2] it was 2500 nM.
The corresponding values for `CS(=O)(=O)c1cccc(-c2nc(C3(c4ccc(-c5cnc(N)nc5)cc4)CCC3)no2)c1` [Example 39, 5-(4-{1-[5-(3-Methanesulfonyl-phenyl)-1,2,4-oxadiazol-3-yl]-cyclobutyl}-phenyl)-pyrimidin-2-ylamine] are 12 nM and 800 nM.
Turning to `C[C@@H]1CCC[C@H](C)N1c1nc(C2(c3ccc(-c4cnc(N)nc4)cc3)CCC2)no1` [Example 306, 5-(4-{1-[5-(cis-2,6-Dimethyl-piperidin-1-yl)-[1,2,4]oxadiazol-3-yl]-cyclobutyl}-phenyl)-pyrimidin-2-ylamine], the values for the IC50 in assay [1] and in assay [2] were 12 nM and 580 nM, respectively.
In the case of `CN(CCO)C(=O)c1ccc(-c2nc(C3(c4ccc(-c5cnc(N)nc5)cc4)CCC3)no2)cn1` [Example 78, 5-(3-{1-[4-(2-Amino-pyrimidin-5-yl)-phenyl]-cyclobutyl}-1,2,4-oxadiazol-5-yl)-pyridine-2-carboxylic acid (2-hydroxy-ethyl)-methyl-amide], the IC50 in assay [1] came to 8.8 nM; in assay [2], 160 nM.
In the case of `CC(C)(C#N)NC(=O)Cn1cc(-c2nc(C3(c4ccc(-c5cnc(N)nc5)cc4)CCC3)no2)cn1` [Example 223, 2-[4-(3-{1-[4-(2-Amino-pyrimidin-5-yl)-phenyl]-cyclobutyl}-[1,2,4]oxadiazol-5-yl)-pyrazol-1-yl]-N-(cyano-dimethyl-methyl)-acetamide], the IC50 in assay [1] was 1.8 nM; in assay [2], 460 nM.
With `CC(O)Cn1cc(-c2nc(C3(c4ccc(-c5cnc(N)nc5)cc4)CCC3)no2)cn1` (stereo not drawn) [Example 83, 1-[4-(3-{1-[4-(2-Amino-pyrimidin-5-yl)-phenyl]-cyclobutyl}-1,2,4-oxadiazol-5-yl)-pyrazol-1-yl]-propan-2-ol], the values for the IC50 in assay [1] and in assay [2] were 4 nM and 110 nM, respectively.
As for `Cn1cc(-c2nc(C3(c4ccc(-c5cnc(N)cn5)cc4)CCC3)no2)cn1` [Example 220, 5-(4-{1-[5-(1-Methyl-1H-pyrazol-4-yl)-[1,2,4]oxadiazol-3-yl]-cyclobutyl}-phenyl)-pyrazin-2-ylamine], the half-maximal inhibitory concentration (IC50) in assay [1] stood at 0.7 nM; in assay [2], 16 nM.
Regarding `CN(CCO)c1ccc(-c2nc(C3(c4ccc(-c5cnc(N)nc5)cc4)CCC3)no2)nn1` [Example 113, 2-{[6-(3-{1-[4-(2-Amino-pyrimidin-5-yl)-phenyl]-cyclobutyl}-1,2,4-oxadiazol-5-yl)-pyridazin-3-yl]-methyl-amino}-ethanol], the IC50 in assay [1] is 1.6 nM; in assay [2], 100 nM.
Taken in the same sequence, the figures for `CC(C)(O)Cn1cc(-c2nc(C3(c4ccc(-c5cnc(N)nc5)cc4)CC3)no2)cn1` [Example 254, 1-[4-(3-{1-[4-(2-Amino-pyrimidin-5-yl)-phenyl]-cyclopropyl}-[1,2,4]oxadiazol-5-yl)-pyrazol-1-yl]-2-methyl-propan-2-ol] were 190 nM and 4700 nM.
As for `Cc1ccc(-c2nc(C3(c4ccc(-c5cnc(N)nc5)cc4)CCCC3)no2)cn1` [Example 155, 5-(4-{1-[5-(6-Methyl-pyridin-3-yl)-1,2,4-oxadiazol-3-yl]-cyclopentyl}-phenyl)-pyrimidin-2-ylamine], the IC50 in assay [1] amounted to 2.8 nM; in assay [2] it was 400 nM.
As to `Nc1ncc(-c2ccc(C3(c4noc(-c5cccc(O)c5)n4)CCC3)cc2)cn1` [Example 43, 3-(3-{1-[4-(2-Amino-pyrimidin-5-yl)-phenyl]-cyclobutyl}-1,2,4-oxadiazol-5-yl)-phenol], the IC50 in assay [1] is 3.2 nM; in assay [2] it was 230 nM.
As for `CN1CCN(C(=O)Cn2cc(-c3nc(C4(c5ccc(-c6cnc(N)nc6)cc5)CCC4)no3)cn2)CC1` [Example 219, 2-[4-(3-{1-[4-(2-Amino-pyrimidin-5-yl)-phenyl]-cyclobutyl}-[1,2,4]oxadiazol-5-yl)-pyrazol-1-yl]-1-(4-methyl-piperazin-1-yl)-ethanone], the results for the IC50 in assay [1] and in assay [2] were 3.1 nM and 140 nM, respectively.
For the molecule `Nc1cnc(-c2ccc(C3(c4noc(-c5cnc(N6CCNCC6)cn5)n4)CCC3)cc2)cn1` [Example 302, 5-(4-{1-[5-(3,4,5,6-Tetrahydro-2H-[1,2′]bipyrazinyl-5′-yl)-[1,2,4]oxadiazol-3-yl]-cyclobutyl}-phenyl)-pyrazin-2-ylamine], the IC50 in assay [1] worked out at 2.6 nM; in assay [2], 150 nM.
On to `Nc1ncc(-c2ccc(C3(c4noc(-c5ccc6nccn6c5)n4)CCC3)cc2)cn1` [Example 73, 5-{4-[1-(5-Imidazo[1,2-a]pyridin-6-yl-1,2,4-oxadiazol-3-yl)-cyclobutyl]-phenyl}-pyrimidin-2-ylamine], for which the IC50 in assay [1] amounted to 6.8 nM; in assay [2], 450 nM.
Regarding `Cc1ncc(-c2nc(C3(c4ccc(-c5cnc(N)nc5)cc4)CCC3)no2)cn1` [Example 165, 5-(4-{1-[5-(2-Methyl-pyrimidin-5-yl)-1,2,4-oxadiazol-3-yl]-cyclobutyl}-phenyl)-pyrimidin-2-ylamine], the IC50 came to 6 nM in assay [1] and 450 nM in assay [2].
As to `Nc1ncc(-c2ccc(C3(c4noc(-c5cc(Cl)c[nH]c5=O)n4)CCC3)cc2)cn1` [Example 191, 3-(3-{1-[4-(2-Amino-pyrimidin-5-yl)-phenyl]-cyclobutyl}-1,2,4-oxadiazol-5-yl)-5-chloro-1H-pyridin-2-one], the IC50 was 2.6 nM in assay [1] and > 5000 nM in assay [2].
Take `N#CC1CCN(CCn2cc(-c3nc(C4(c5ccc(-c6cnc(N)nc6)cc5)CCC4)no3)cn2)CC1` [Example 246, 1-{2-[4-(3-{1-[4-(2-Amino-pyrimidin-5-yl)-phenyl]-cyclobutyl}-[1,2,4]oxadiazol-5-yl)-pyrazol-1-yl]-ethyl}-piperidine-4-carbonitrile]: the results for the IC50 in assay [1] and in assay [2] were 8.1 nM and 79 nM, respectively.
The corresponding values for `CN(C)C(=O)C(C)(C)n1cc(-c2nc(C3(c4ccc(-c5cnc(N)nc5)cc4)CCC3)no2)cn1` [Example 128, 2-[4-(3-{1-[4-(2-amino-pyrimidin-5-yl)-phenyl]-cyclobutyl}-1,2,4-oxadiazol-5-yl)-pyrazol-1-yl]-N,N-dimethyl-isobutyramide] are 6.7 nM and 180 nM.
